Patent US9315498B2, “Arlethynyl derivatives” (Hoffmann-La Roche Inc., priority 2010, dated 2016)

Target: human mGlu5a receptor (Homo sapiens (Human), UniProt P41594)
Test: Intracellular Ca2+ mobilization assay (mGlu5 PAM)
Type: cell-based
Conditions: for EC50: HEK-293 cells stably transfected with human mGlu5a, L-glutamate added at EC20 after pre-incubation with test compound, read-out: EC50 (nM) mGlu5PAM; for Emax: maximal response in % of the maximal stimulatory effect obtained with saturating concentrations of L-glutamate, read-out: Eff. (%)
Description: A monoclonal HEK-293 cell line stably transfected with a cDNA encoding for the human mGlu5a receptor was generated; for the work with mGlu5 Positive Allosteric Modulators (PAMs), a cell line with low receptor expression levels and low constitutive receptor activity was selected to allow the differentiation of agonistic versus PAM activity. Cells were cultured according to standard protocols (Freshney, 2000) in Dulbecco's Modified Eagle Medium with high glucose supplemented with 1 mM glutamine, 10% (vol/vol) heat-inactivated bovine calf serum, Penicillin/Streptomycin, 50 μg/ml hygromycin and 15 μg/ml blasticidin (all cell culture reagents and antibiotics from Invitrogen, Basel, Switzerland).
About 24 hrs before an experiment, 5×10^4 cells/well were seeded in poly-D-lysine coated, black/clear-bottomed 96-well plates. The cells were loaded with 2.5 μM Fluo-4AM in loading buffer (1×HBSS, 20 mM HEPES) for 1 hr at 37° C. and washed five times with loading buffer. The cells were transferred into a Functional Drug Screening System 7000 (Hamamatsu, Paris, France), and 11 half logarithmic serial dilutions of test compound at 37° C. were added and the cells were incubated for 10-30 min. with on-line recording of fluorescence. Following this pre-incubation step, the agonist L-glutamate was added to the cells at a concentration corresponding to EC20 (typically around 80 μM) with on-line recording of fluorescence; in order to account for day-to-day variations in the responsiveness of cells, the EC20 of glutamate was determined immediately ahead of each experiment by recording of a full dose-response curve of glutamate.
Responses were measured as peak increase in fluorescence minus basal (i.e. fluorescence without addition of L-glutamate), normalized to the maximal stimulatory effect obtained with saturating concentrations of L-glutamate. Graphs were plotted with the % maximal stimulatory using XLfit, a curve fitting program that iteratively plots the data using Levenburg Marquardt algorithm. The single site competition analysis equation used was y=A+((B−A)/(1+((x/C)D))), where y is the % maximal stimulatory effect, A is the minimum y, B is the maximum y, C is the EC50, x is the log10 of the concentration of the competing compound and D is the slope of the curve (the Hill Coefficient). From these curves the EC50 (concentration at which half maximal stimulation was achieved), the Hill coefficient as well as the maximal response in % of the maximal stimulatory effect obtained with saturating concentrations of L-glutamate were calculated.
A depression of the signal observed after addition of the EC20 concentration of L-glutamate was indicative of an inhibitory activity of the test compound.

Sequence of human mGlu5a receptor (P41594 other isoform, or with tags, fused parts or gaps): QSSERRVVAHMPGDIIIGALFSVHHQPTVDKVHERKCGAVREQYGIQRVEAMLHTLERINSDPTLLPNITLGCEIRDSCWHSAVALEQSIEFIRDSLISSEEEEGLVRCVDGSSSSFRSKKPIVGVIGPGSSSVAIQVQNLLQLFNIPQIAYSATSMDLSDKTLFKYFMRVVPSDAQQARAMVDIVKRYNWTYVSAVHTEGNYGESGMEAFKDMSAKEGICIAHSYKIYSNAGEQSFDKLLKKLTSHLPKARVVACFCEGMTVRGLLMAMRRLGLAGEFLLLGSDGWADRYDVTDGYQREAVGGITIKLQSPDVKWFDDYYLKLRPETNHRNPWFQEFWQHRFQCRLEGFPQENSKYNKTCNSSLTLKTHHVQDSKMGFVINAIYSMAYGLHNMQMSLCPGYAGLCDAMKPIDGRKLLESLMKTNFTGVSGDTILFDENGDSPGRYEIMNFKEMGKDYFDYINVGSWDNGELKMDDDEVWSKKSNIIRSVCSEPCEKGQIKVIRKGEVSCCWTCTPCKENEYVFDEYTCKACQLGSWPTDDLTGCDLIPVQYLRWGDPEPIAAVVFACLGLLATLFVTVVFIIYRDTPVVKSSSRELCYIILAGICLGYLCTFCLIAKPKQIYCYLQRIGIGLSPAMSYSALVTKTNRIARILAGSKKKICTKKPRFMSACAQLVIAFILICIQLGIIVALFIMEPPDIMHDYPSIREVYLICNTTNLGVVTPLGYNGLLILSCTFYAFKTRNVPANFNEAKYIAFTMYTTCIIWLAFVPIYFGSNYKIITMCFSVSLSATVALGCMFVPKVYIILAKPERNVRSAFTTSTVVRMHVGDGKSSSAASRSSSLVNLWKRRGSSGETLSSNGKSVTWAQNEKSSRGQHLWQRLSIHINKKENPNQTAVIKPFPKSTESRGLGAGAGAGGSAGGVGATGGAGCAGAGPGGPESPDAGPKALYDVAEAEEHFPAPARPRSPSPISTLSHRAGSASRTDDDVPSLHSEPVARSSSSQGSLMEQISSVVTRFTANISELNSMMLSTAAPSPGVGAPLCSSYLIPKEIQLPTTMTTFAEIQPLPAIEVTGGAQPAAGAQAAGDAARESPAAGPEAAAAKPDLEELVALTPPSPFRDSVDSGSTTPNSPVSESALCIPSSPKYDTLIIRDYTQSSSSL

Structure (SMILES)	EC50 [nM]	Emax [%]
CN1C(=O)N(c2ccc(C#Cc3cccc(F)c3)cn2)CC1(C)C [Example 53, 1-[5-(3-Fluoro-phenylethynyl)-pyridin-2-yl]-3,4,4-trimethyl-imidazolidin-2-one]	29	103
O=C1N(c2ccc(C#Cc3cccc(F)c3)cn2)CC2CCCCN12 (racemic) [Example 71, (RS)-2-[5-(3-Fluoro-phenylethynyl)-pyridin-2-yl]-hexahydro-imidazo[1,5-a]pyridin-3-one]	17	41
O=C1CC2(CCCC2)CN1c1ncc(C#Cc2ccccc2)cn1 [Example 117, 2-(5-Phenylethynyl-pyrimidin-2-yl)-2-aza-spiro[4.4]nonan-3-one]	44	84
CC1(C)CCN(c2cnc(C#Cc3ccccc3)cn2)C(=O)O1 [Example 168, 6,6-Dimethyl-3-(5-(phenylethynyl)pyrazin-2-yl)-1,3-oxazinan-2-one]	15	41
Cc1cc(C#Cc2cccc(F)c2)cnc1N1CC(C)(C)N(C)C1=O [Example 108, 1-[5-(3-Fluoro-phenylethynyl)-3-methyl-pyridin-2-yl]-3,4,4-trimethyl-imidazolidin-2-one]	102	115
CC1(C)CN(c2ccc(C#Cc3cccc(F)c3)cn2)C(=O)O1 [Example 6, 3-[5-(3-Fluoro-phenylethynyl)-pyridin-2-yl]-5,5-dimethyl-oxazolidin-2-one]	9	46
CN1C(=O)N(c2ccc(C#Cc3cccnc3)cn2)CC1(C)C [Example 48, 3,4,4-Trimethyl-1-(5-pyridin-3-ylethynyl-pyridin-2-yl)-imidazolidin-2-one]	14	89
CN1C(=O)N(c2ccc(C#Cc3ccccc3)nn2)[C@@H]2CCC[C@@H]21 (racemic) [Example 170, (3aRS,6aSR)-1-Methyl-3-(6-phenylethynyl-pyridazin-3-yl)-hexahydro-cyclopentaimidazol-2-one]	13	105
O=C1O[C@H]2CCCC[C@H]2N1c1ccc(C#Cc2ccccc2)cn1 (racemic) [Example 47, (6SR,7RS)-3-(5-Phenylethynyl-pyridin-2-yl)-hexahydro-benzooxazol-2-one]	36	109
CN1C(=O)N(c2ncc(C#Cc3cc(F)ccc3F)cn2)CCC1(C)C [Example 139, 5′-(2,5-Difluoro-phenylethynyl)-3,4,4-trimethyl-3,4,5,6-tetrahydro-[1,2′]bipyrimidinyl-2-one]	57	54
COCC1CCN(c2ccc(C#Cc3ccccc3)cn2)C(=O)O1 (racemic) [Example 105, (RS)-6-Methoxymethyl-3-(5-phenylethynyl-pyridin-2-yl)-[1,3]oxazinan-2-one]	68	51
CC1(C)CN(c2ccc(C#Cc3ccc(F)nc3)cn2)C(=O)O1 [Example 35, 3-[5-(6-Fluoro-pyridin-3-ylethynyl)-pyridin-2-yl]-5,5-dimethyl-oxazolidin-2-one]	54	52
CC1CN(c2ccc(C#Cc3ccccc3)cn2)C(=O)CO1 (racemic) [Example 171, (RS)-6-Methyl-4-(5-phenylethynyl-pyridin-2-yl)-morpholin-3-one]	88	73
CCN1C(=O)N(c2ccc(C#Cc3ccccc3)cn2)C2CCCCC21 (stereo not drawn) [Example 99, (3aSR,7aRS)-(3aRS,7RS)-1-Ethyl-3-(5-phenylethynyl-pyridin-2-yl)-octahydro-benzoimidazol-2-one]	18	90
CN1C(=O)N(c2ccc(C#Cc3ccccc3)cn2)CC12CC2 [Example 96, 4-Methyl-6-(5-phenylethynyl-pyridin-2-yl)-4,6-diaza-spiro[2.4]heptan-5-one]	35	98
CN1C(=O)N(c2ccc(C#Cc3cccnc3)cn2)C2CCCCC21 (stereo not drawn) [Example 85, (3aSR,7aRS)-(3aRS,7RS)-1-Methyl-3-(5-pyridin-3-ylethynyl-pyridin-2-yl)-octahydro-benzoimidazol-2-one]	27	49
CC1(C)CCN(c2ncc(C#Cc3cccc(F)c3)cn2)C(=O)C1 [Example 135, 1-[5-(3-Fluoro-phenylethynyl)-pyrimidin-2-yl]-4,4-dimethyl-piperidin-2-one]	35	47
CC1N(c2ccc(C#Cc3ccccc3)cn2)C(=O)OC1(C)C (racemic) [Example 27, (RS)-4,5,5-Trimethyl-3-(5-phenylethynyl-pyridin-2-yl)-oxazolidin-2-one]	15	61
CC1(C)CCN(c2ccc(C#Cc3cccc(Cl)c3)cn2)C(=O)C1 [Example 89, 5′-(3-Chloro-phenylethynyl)-4,4-dimethyl-3,4,5,6-tetrahydro-[1,2′]bipyridinyl-2-one]	25	78
O=C1CS(=O)(=O)CCN1c1ccc(C#Cc2ccccc2)cn1 [Example 173, 1,1-Dioxo-4-(5-phenylethynyl-pyridin-2-yl)-thiomorpholin-3-one]	29	82
CN1C(=O)N(c2ncc(C#Cc3cc(F)ccc3F)cn2)CC1(C)C [Example 124, 1-[5-(2,5-Difluoro-phenylethynyl)-pyrimidin-2-yl]-3,4,4-trimethyl-imidazolidin-2-one]	7	43
CCN1C(=O)N(c2ccc(C#Cc3cccnc3)cn2)C2CCCCC21 (stereo not drawn) [Example 100, (3aSR,7aRS)-(3aRS,7RS)-1-Ethyl-3-(5-pyridin-3-ylethynyl-pyridin-2-yl)-octahydro-benzoimidazol-2-one]	–	64
CC(C)N1C(=O)N(c2ncc(C#Cc3ccccc3)cn2)CC1(C)C [Example 140, 3-Isopropyl-4,4-dimethyl-1-(5-phenylethynyl-pyrimidin-2-yl)-imidazolidin-2-one]	28	58
CC1(C)CC(=O)N(c2ccc(C#Cc3ccccc3)cn2)C1 [Example 13, 4,4-Dimethyl-1-(5-phenylethynyl-pyridin-2-yl)-pyrrolidin-2-one]	37	129
CC1(C)CN(c2ncc(C#Cc3ccccc3)cc2F)C(=O)O1 [Example 1, 3-(3-Fluoro-5-phenylethynyl-pyridin-2-yl)-5,5-dimethyl-oxazolidin-2-one]	30	68
CN1C(=O)N(c2cnc(C#Cc3ccccc3)cn2)CC1(C)C [Example 156, 3,4,4-Trimethyl-1-(5-(phenylethynyl)pyrazin-2-yl)imidazolidin-2-one]	24	58
CC1(C)CC(=O)N(c2ncc(C#Cc3ccccc3)cn2)C1 [Example 115, 4,4-Dimethyl-1-(5-phenylethynyl-pyrimidin-2-yl)-pyrrolidin-2-one]	13	109
CC1(C)CCN(c2ncc(C#Cc3ccccc3)cn2)C(=O)C1 [Example 134, 4,4-Dimethyl-1-(5-phenylethynyl-pyrimidin-2-yl)-piperidin-2-one]	42	90
CN1C(=O)N(c2ccc(C#Cc3cccc(F)c3)cn2)CC12CC2 [Example 113, 6-[5-(3-Fluoro-phenylethynyl)-pyridin-2-yl]-4-methyl-4,6-diaza-spiro[2.4]heptan-5-one]	51	75
